Assay results: patent publication US20230102590A1, “USE OF POLYETHER COMPOUND” (Senju Pharmaceutical Co., Ltd., priority 2020, published 2023)
Where two headings read alike, the source gives them in different places.

Key:
[1] = Basic solubility at 25° C. in ethanol, PEG 400, propylene glycol (PG) and buffer solution; solubility ratio non-aqueous solvent / buffer solution; conditions: for Solubility ratio of solvent with respect to buffer solution Ethanol/buffer solution / Solubility ratio of solvent with respect to buffer solution PEG400/buffer solution / Solubility ratio of solvent with respect to buffer solution PG/buffer solution: buffer pH 7.0 (pH 7.4 for cabozantinib and telmisartan; pH 6.0 for rebamipide); for Solubility, Buffer solution: phosphate buffer pH 7.0
Protocol: In this regard, the buffer solution had the following composition: • 0.2% sodium hydrogen phosphate hydrate • 0.3% sodium dihydrogen phosphate hydrate • sodium hydroxide and hydrochloric acid (suitable amount was added to adjust the pH to 7.0; however, pH was adjusted to 7.4 for cabozantinib and telmisartan).
However, the following composition was used for rebamipide instead: • 0.05% sodium hydrogen phosphate hydrate • 0.45% sodium dihydrogen phosphate hydrate • sodium hydroxide and hydrochloric acid (suitable amount was added to adjust the pH to 6.0).
Each compound was measured in the same manner described above. In the Table, the molecular weight and Log P values are reference values (or values calculated from reference values).

[2] = Protocol: Fujifilm Wako Pure Chemical
The poorly soluble compound content in the recovered filtrate was measured by liquid chromatography specified below (Shimadzu (Kyoto), high performance liquid chromatograph Prominence).
As the standard product of triamcinolone acetonide, a reagent from the Pharmaceutical and Medical Device Regulatory Science Society of Japan (Japan) was used. • 50 μL of sample solution and standard solution was measured by liquid chromatography under the following conditions.
Column temperature: constant temperature of about 40° C. Mobile phase A: 0.1% trifluoroacetic acid/10% acetonitrile solution Mobile phase B: 0.1% trifluoroacetic acid/90% acetonitrile solution Delivery of mobile phase: the ratio of mixture of mobile phase A and mobile phase B was changed as follows to control the linear concentration gradient.
Detergent: 50% acetonitrile solution Flow rate: 1.0 mL/min Temperature within autosampler: 5° C.
The following conditions were tested as additives to a poorly soluble compound
wherein SA+B=solubility of a poorly soluble compound in a composition comprising poloxamer 407 and PEG 4000 SB=solubility of a poorly soluble compound in a composition comprising PEG 4000, but not poloxamer 407 SA=solubility of a poorly soluble compound in a composition comprising poloxamer 407, but not PEG 4000 S0=solubility of a poorly soluble compound in a composition that comprises neither poloxamer 407 nor PEG 4000.
The solubility in a composition of PEG and poloxamer was measured in the same manner described above for additional compounds.
For cabozantinib and telmisartan, the pH of the aqueous solution with the base composition described above was changed to 7.4. For rebamipide, the aqueous solution with the base composition was as follow. • 0.05% sodium hydrogen phosphate hydrate • 0.45% sodium dihydrogen phosphate hydrate • sodium hydroxide and hydrochloric acid (suitable amount was added to adjust the pH to 6.0)
Additional compounds were measured in the same manner described above.
Cabozantinib and telmisartan were tested with a solution adjusted to a pH of 7.4. Rebamipide was tested with a solution adjusted to a pH of 6.0. Other compounds were tested with a solution adjusted to a pH of 7.0.

Solubility ratio of solvent with respect to buffer solution Ethanol/buffer solution ([1]; 25° C.)	Solubility ratio of solvent with respect to buffer solution PEG400/buffer solution ([1]; 25° C.)	Solubility ratio of solvent with respect to buffer solution PG/buffer solution ([1]; 25° C.)	Solubility scale factor at 5° C. 30% PEG 4000/10% poloxamer 407 [2]	Solubility scale factor at 15° C. 30% PEG 4000/10% poloxamer 407 [2]	Solubility, Ethanol ([1]; 25° C.) [%]	Solubility, PEG400 ([1]; 25° C.) [%]	Solubility, PG (propylene glycol) ([1]; 25° C.) [%]	Solubility, Buffer solution ([1]; 25° C.)	Solubility, Ethanol [1] [%]	Compound	state of the test composition [2]
					10.24					Cc1ccc(-c2cc(C(F)(F)F)nn2-c2ccc(S(N)(=O)=O)cc2)cc1 [Celecoxib]	
270.67	143.78	174.69	7.59	6.73		1.031	1.253	0.007171%		CC1(C)O[C@@H]2C[C@H]3[C@@H]4CCC5=CC(=O)C=C[C@]5(C)[C@H]4[C@@H](O)C[C@]3(C)[C@]2(C(=O)CO)O1 [Desonide]	
101607.44	96901.18	66368.13	14.23	1.97						O=C1Nc2ccc(Cl)cc2[C@@](C#CC2CC2)(C(F)(F)F)O1 [Efavir ? nt]	
745.67	5882.38	1401.17	24.46	12.41					0.007308	COC(=O)Nc1nc2cc(C(=O)c3ccc(F)cc3)ccc2[nH]1 [Flubendazole]	
309.31	1745.29	200.23	15.19	14.31	0.2423	1.367	0.1569	0.0007834%		COC1=CC(=O)C[C@@H](C)[C@]12Oc1c(Cl)c(OC)cc(OC)c1C2=O [Griseofulvin]	
								below the detection limit		CCC(C)n1ncn(-c2ccc(N3CCN(c4ccc(OCC5COC(Cn6cncn6)(c6ccc(Cl)cc6Cl)O5)cc4)CC3)cc2)c1=O (centres unmarked) [Itraconazole]	
								0.001426%		CC1(C)O[C@@H]2C[C@H]3[C@@H]4CCC5=CC(=O)C=C[C@]5(C)[C@@]4(F)[C@@H](O)C[C@]3(C)[C@]2(C(=O)CO)O1 [triamcinolone acetonide]	

More lines, now with the values behind:

Compound	Solubility ratio of solvent with respect to buffer solution Ethanol/buffer solution ([1]; 25° C.)	Solubility ratio of solvent with respect to buffer solution PEG400/buffer solution ([1]; 25° C.)	Solubility ratio of solvent with respect to buffer solution PG/buffer solution ([1]; 25° C.)	Solubility scale factor at 5° C. 30% PEG 4000/10% poloxamer 407 [2]	Solubility scale factor at 15° C. 30% PEG 4000/10% poloxamer 407 [2]	Solubility, Ethanol ([1]; 25° C.) [%]	Solubility, PEG400 ([1]; 25° C.) [%]	Solubility, PG (propylene glycol) ([1]; 25° C.) [%]	Solubility, Buffer solution ([1]; 25° C.)	Solubility, Ethanol [1] [%]	state of the test composition [2]
Brc1cccc2c1oc1ccccc12 [4-bromadibenzofuran]	426955.49	1693721.20	106519.51	793.72	1.61						
Brc1cccc2c1oc1ccccc12 [4-bromodibenzofuran]											converted into gel
Cc1ccc(-c2cc(C(F)(F)F)nn2-c2ccc(S(N)(=O)=O)cc2)cc1 [Cel ? coxib]	80774.38	371931.96	28507.07	686.99	183.33						
C=C(C)[C@H]1Cc2c(ccc3c2O[C@@H]2COc4cc(OC)c(OC)cc4[C@@H]2C3=O)O1 [Rotenone]	30294.14	368226.98	13159.33				3.314	0.1184			
